The subject of assay [1] is HL-60 cells. As to the kind of experiment: Apoptosis by FITC-Annexin V and PI double-staining, flow cytometry. The format is cell-based. The following applies: 1.8 µM, 24 h. The method, then:
Pro-apoptotic activity of 5a was also confirmed using FITC-Annexin V and PI double-staining, based on the loss of plasma membrane asymmetry (phosphatidylserine externalization), which is a marker of the earlier stages of apoptosis.
Apoptotic cell death was determined using FITC-Annexin V Apoptosis Detection Kit I (BD Bioscience, San Jose, CA, USA). Briefly, HL-60 cells were seeded in the 6-well plates (4.0 × 10^5 cells/well) in 2 mL of the culture medium and treated with […] for 24 h. Afterwards, the cells were collected by centrifugation (300× g, 5 min), washed with PBS, re-suspended in binding buffer and stained with FITC-conjugated annexin V and propidium iodide (PI) according to the manufacturer guidelines (15 min, at room temperature). The samples were analyzed by flow cytometry using CytoFLEX (Beckman Coulter, Inc., Brea, CA, USA). Data analysis was performed using Kaluza Analysis Software v2 (Beckman Coulter, Inc., Brea, CA, USA).
For orientation: A flow cytometer gives signals particle by particle.

Another assay relates to HUVEC cells. As to the kind of experiment: MTT in vitro cytotoxicity assay, HUVEC (normal cells). The format is cell-based, human. The following applies: Homo sapiens, HUVEC, 48 h incubation, mean ± SEM. The method, then:
(§1) The promyelocytic leukemia HL-60 and breast cancer adenocarcinoma MCF-7 cell lines were purchased from the European Collection of Cell Cultures (ECACC). Leukemia cells were cultured in RPMI 1640 plus GlutaMax I medium (Gibco/Life Technologies, Carlsbad, CA, USA). MCF-7 cells were maintained in Minimum Essential Medium Eagle (Sigma Aldrich, St. Louis, MO, USA) and supplemented with 2 mM glutamine and men non-essential amino acid solution (Sigma Aldrich, St. Louis, MO, USA). Both media were supplemented with 10% heat-inactivated fetal bovine serum (Biological Industries, Beit-Haemek, Israel) and antibiotics (100 U/mL penicillin and 100 μg/mL streptomycin) (Sigma-Aldrich, St. Louis, MO, USA). Human umbilical vein endothelial cells (HUVECs) were purchased from the American Type Culture Collection (ATCC). Cells were cultured using EGM-2 Endothelial Medium BulletKit purchased from Lonza (Lonza, Walkersville, MD, USA). Cells were maintained at 37 °C in 5% CO2 atmosphere and grown until 80% confluent.
(§2) The tested compounds were dissolved in sterile dimethyl sulfoxide (DMSO) and further diluted with culture medium. The final concentration of DMSO in cell cultures was less than 0.1% v/v. Controls without and with 0.1% DMSO were performed in each experiment. At the used concentration, DMSO had no effect on the observed parameters.
(§3) The MTT (3-(4,5-dimethylthiazol-2-yl)-2,5-diphenyltetrazolium bromide) assay, which measures the activity of cellular dehydrogenases, was performed according to the Mosmann method. Exponentially growing cells were seeded into 24-well plates at a density of 8 × 10^4 cells/mL and left to grow for 24 h. After 24 h or 48 h of incubation with various concentrations of the tested compounds (dissolved in DMSO and diluted with complete culture medium), cells were incubated with 0.1 mL of MTT solution (5 mg/mL in phosphate buffered saline) for 1.5 h. The metabolically active cells reduced MTT to blue formazan crystals. The plates were centrifuged, and the supernatant was discarded. DMSO (1 mL) was added to each well to dissolve the crystals, whose absorbance was measured at 560 nm using FlexStation 3 Multi-Mode Microplate Reader (Molecular Devices, LLC, San Jose, CA, USA). The untreated cells were used as control. The IC50 values were calculated from the concentration–response curves. The data were expressed as mean ± SEM of three independent experiments.

The next assay deals with ABCB1 gene expression. The assay is described as follows: Real-time PCR of ABCB1 mRNA level in HL-60 cells. The format is cell-based. The following applies: higher concentration (1.8 µM; 0.9 and 1.8 µM tested), 24 h. The source says:
Overexpression of ATP-binding cassette (ABC) transporters causing multidrug resistance (MDR) in cancer cells is one of the major problems associated with poor therapeutic outcome of anticancer drugs. ABC transporters reduce the cellular uptake of drugs into cancer cells, defending them from medical interventions. In leukemia cells ABCB1 (P-glycoprotein), overexpression has been observed. […] It seemed interesting to determine if 3-methylidenequinolin-4-one 5a would also down-regulate ABCB1 mRNA levels in leukemia HL-60 cells. Here, we tested the ABCB1 gene expression of 5a at two concentrations, 0.9 and 1.8 µM. Compound 5a decreased the ABCB1 mRNA level at a higher concentration (Figure 6).
The mRNA level of the ABCB1 gene was assessed using quantitative real-time PCR. Briefly, HL-60 cells were seeded in 6-well plates (4.0 × 10^5 cells/mL) in 2 mL of growth medium and treated with 5a for 24 h. Total RNA was extracted using the Total RNA Mini Kit (A&A Biotechnology, Gdynia, Poland) according to the manufacturer’s protocol. The concentration of RNA used for further experiments was 500 ng. cDNA was synthesized using Transcriba Kit (A&A Biotechnology, Gdynia, Poland). […] The expression level of ABCB1 gene was determined by the 2^−∆∆CT method.

Assay [2] concerns HL-60 cells. The assay is described as follows: MTT in vitro cytotoxicity assay, HL-60. The following applies: Homo sapiens. The format is cell-based. Here is the method:
as §1, §2, §3

Molecules are shown by their SMILES. Read-outs that look alike come from different tables or passages of the source.

As a reminder, the IC50 is the concentration at which inhibition is half-maximal. On to `C=C1C(=O)c2ccccc2N(S(=O)(=O)c2ccccc2)C1CC` (stereo not drawn) [Compound 5a, 2-Ethyl-3-methylidene-1-(phenylsulfonyl)-2,3-dihydroquinolin-4(1H)-one], for which the “early apoptotic cell fraction (Annexin V-positive)” value in the assay with HL-60 cells [1] is recorded as “up to 13.9%”. The “late apoptotic cell fraction (Annexin V- and PI-positive)” value in the assay with HL-60 cells [1] was at most 13.7%. Also, the IC50 with HUVEC cells came out at 1870 ± 20 nM; in the assay with HL-60 cells [2] (HL-60, 24 h, 24 h incubation, read-out: IC50 HL-60 after 24 h incubation), 910 ± 30 nM; in the assay with HL-60 cells [2] (HL-60, 48 h, 48 h incubation, mean ± SEM, read-out: IC50 HL-60), 340 ± 30 nM. In addition, in the assay on ABCB1 gene expression, the “ABCB1 mRNA level” value was “decreased”.

Values taken from PMC9181899, “Synthesis and Anticancer Properties of New 3-Methylidene-1-sulfonyl-2,3-dihydroquinolin-4(1H)-ones” (Molecules, 2022).
